In US20210300924A1, “5-[6-[[3-(4,5,6,7-TETRAHYDROPYRAZOLO[4,3-C]PYRIDIN-1-YL)AZETIDIN-1-YL]METHYL]MORPHOLIN-4-YL]QUINOLINE-8-CARBONITRILE DERIVATIVES AND SIMILAR COMPOUNDS AS TLR7-9 ANTAGONISTS FOR TREATING SYSTEMIC LUPUS ERYTHEMATOSUS” (Hoffmann-La Roche Inc., priority 2018, published 2021):

target: T1, TLR9 (Homo sapiens, UniProt Q9NR96); experiment: HEK293-Blue-hTLR-9 cells assay; format: cell-based; parameters: host or cells: HEK293 (HEK-Blue hTLR9); details: HEK293-Blue-hTLR9 cells, ODN2006 stimulation, 20 hrs, SEAP reporter; read-out: HEK/hTLR9 IC50
T1 sequence (Q9NR96 26-1032): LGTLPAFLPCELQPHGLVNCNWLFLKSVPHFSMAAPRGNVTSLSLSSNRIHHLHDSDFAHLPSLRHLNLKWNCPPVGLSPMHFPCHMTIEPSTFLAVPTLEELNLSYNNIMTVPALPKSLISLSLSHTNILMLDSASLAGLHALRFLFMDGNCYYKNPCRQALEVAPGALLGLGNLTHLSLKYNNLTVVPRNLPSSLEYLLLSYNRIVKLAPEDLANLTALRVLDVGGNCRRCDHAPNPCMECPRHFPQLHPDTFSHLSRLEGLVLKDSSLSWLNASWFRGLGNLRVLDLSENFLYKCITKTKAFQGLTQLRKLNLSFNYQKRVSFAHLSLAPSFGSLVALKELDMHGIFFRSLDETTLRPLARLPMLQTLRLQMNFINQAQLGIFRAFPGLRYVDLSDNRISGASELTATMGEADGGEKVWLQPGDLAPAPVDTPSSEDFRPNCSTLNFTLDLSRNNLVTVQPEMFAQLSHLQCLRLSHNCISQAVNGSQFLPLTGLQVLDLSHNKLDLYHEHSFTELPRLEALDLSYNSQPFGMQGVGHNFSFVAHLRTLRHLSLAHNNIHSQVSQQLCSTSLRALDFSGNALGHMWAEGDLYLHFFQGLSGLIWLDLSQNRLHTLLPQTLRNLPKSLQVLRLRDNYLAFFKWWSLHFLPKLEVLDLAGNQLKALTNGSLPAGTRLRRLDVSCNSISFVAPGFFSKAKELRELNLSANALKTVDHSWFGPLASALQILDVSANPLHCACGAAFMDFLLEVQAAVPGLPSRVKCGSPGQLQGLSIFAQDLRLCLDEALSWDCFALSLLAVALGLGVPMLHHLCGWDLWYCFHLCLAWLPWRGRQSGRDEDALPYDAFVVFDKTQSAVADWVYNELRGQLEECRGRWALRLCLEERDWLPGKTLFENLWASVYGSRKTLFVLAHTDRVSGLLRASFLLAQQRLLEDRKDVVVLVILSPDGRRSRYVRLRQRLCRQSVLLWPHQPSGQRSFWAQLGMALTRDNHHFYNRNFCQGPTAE
Description: HEK293-Blue-hTLR-9 Cells Assay:
A stable HEK293-Blue-hTLR-9 cell line was purchased from InvivoGen (Cat. #: hkb-htlr9, San Diego, Calif., USA). These cells were originally designed for studying the stimulation of human TLR9 by monitoring the activation of NF-κB. A SEAP (secreted embryonic alkaline phosphatase) reporter gene was placed under the control of the IFN-β minimal promoter fused to five NF-κB and AP-1-binding sites. The SEAP was induced by activating NF-κB and AP-1 via stimulating HEK-Blue hTLR9 cells with TLR9 ligands. Therefore the reporter expression was declined by TLR9 antagonist under the stimulation of a ligand, such as ODN2006 (Cat. #: tlr1-2006-1, Invivogen, San Diego, Calif., USA), for incubation of 20 hrs. The cell culture supernatant SEAP reporter activity was determined using QUANTI-Blue™ kit (Cat. #: rep-01, Invivogen, San Diego, Calif., USA) at a wavelength of 640 nm, a detection medium that turns purple or blue in the presence of alkaline phosphatase.
HEK293-Blue-hTLR9 cells were incubated at a density of 250,000-450,000 cells/mL in a volume of 170 μL in a 96-well plate in Dulbecco's Modified Eagle's medium (DMEM) containing 4.5 g/L glucose, 50 U/mL penicillin, […], 2 mM L-glutamine, 10% (v/v) heat-inactivated fetal bovine serum with addition of 20 μL test compound in a serial dilution in the presence of final DMSO at 1% and 10 μL of 20 uM ODN2006 in above DMEM, perform incubation under 37° C. in a CO2 incubator for 20 hrs. Then 20 μL of the supernatant from each well was incubated with 180 μL Quanti-blue substrate solution at 37° C. for 2 h and the absorbance was read at 620-655 nm using a spectrophotometer. The signaling pathway that TLR9 activation leads to downstream NF-κB activation has been widely accepted, and therefore similar reporter assay was modified for evaluating TLR9 antagonist.

Question: Which IC50 does the source give for `C[C@@H]1Cc2nn(C3CN(C[C@H]4CN(c5ccc(C#N)c6ncccc56)C[C@@H](C)O4)C3)cc2CN1` [Example 17, 5-[(2R,6S)-2-methyl-6-[[3-[(6R)-6-methyl-4,5,6,7-tetrahydropyrazolo[4,3-c]pyridin-2-yl]azetidin-1-yl]methyl]morpholin-4-yl]quinoline-8-carbonitrile] here?
Answer: Its IC50 is 88 nM.

Question: Which IC50 does the source give for `CCN1CCc2cnn(C3CN(C[C@H]4CN(c5ccc(C#N)c6ncccc56)C[C@@H](C)O4)C3)c2C1` [Example 6, 5-[(2S,6R)-2-[[3-(6-ethyl-5,7-dihydro-4H-pyrazolo[3,4-c]pyridin-1-yl)azetidin-1-yl]methyl]-6-methyl-morpholin-4-yl]quinoline-8-carbonitrile] here?
Answer: Its IC50 is 153 nM.

Question: Which IC50 does the source give for `Cc1c2c(nn1C1CN(C[C@H]3CN(c4ccc(C#N)c5ncccc45)C[C@@H](C)O3)C1)CCNC2` [Example 13, 5-[(2R,6S)-2-methyl-6-[[3-(3-methyl-4,5,6,7-tetrahydropyrazolo[4,3-c]pyridin-2-yl)azetidin-1-yl]methyl]morpholin-4-yl]quinoline-8-carbonitrile] here?
Answer: Its IC50 is 118 nM.

Question: Which IC50 does the source give for `C[C@@H]1CN(c2ccc(C#N)c3ncccc23)C[C@H](CN2CC(n3ncc4c3CNCC4)C2)O1` [Example 3, 5-[(2R,6S)-2-methyl-6-[[3-(4,5,6,7-tetrahydropyrazolo[3,4-c]pyridin-1-yl)azetidin-1-yl]methyl]morpholin-4-yl]quinoline-8-carbonitrile] here?
Answer: Its IC50 is 51 nM.

Question: Which IC50 does the source give for `Cc1c2c(nn1C1CN(C[C@H]3CN(c4ccc(C#N)c5ncccc45)C[C@@H](C)O3)C1)CCN(C)C2` [Example 15, 5-[(2S,6R)-2-[[3-(3,5-dimethyl-6,7-dihydro-4H-pyrazolo[4,3-c]pyridin-2-yl)azetidin-1-yl]methyl]-6-methyl-morpholin-4-yl]quinoline-8-carbonitrile] here?
Answer: Its IC50 is 128 nM.

Question: With `C[C@@H]1CN(c2ccc(C#N)c3ncccc23)C[C@H](CN2CC(n3ncc4c3CCNC4)C2)O1` [Example 1, 5-[(2R,6S)-2-methyl-6-[[3-(4,5,6,7-tetrahydropyrazolo[4,3-c]pyridin-1-yl)azetidin-1-yl]methyl]morpholin-4-yl]quinoline-8-carbonitrile] as the compound, how does the IC50 read?
Answer: The IC50 was 57 nM.

Question: Which IC50 does the source give for `C[C@@H]1CN(c2ccc(C#N)c3ncccc23)C[C@H](CN2CC(n3ncc4c3[C@H](C)NCC4)C2)O1` (single isomer, unassigned) [Example 32] here?
Answer: Its IC50 is 62 nM.

Question: How did the IC50 turn out when `Cc1c2c(nn1C1CN(C[C@H]3CN(c4ccc(C#N)c5ncccc45)C[C@@H](C)O3)C1)CNCC2` [Example 43, 5-[(2R,6S)-2-methyl-6-[[3-(3-methyl-4,5,6,7-tetrahydropyrazolo[3,4-c]pyridin-2-yl)azetidin-1-yl]methyl]morpholin-4-yl]quinoline-8-carbonitrile] was run?
Answer: Its IC50 is 83 nM.

Question: `C[C@@H]1CN(c2ccc(C#N)c3ncccc23)C[C@H](CN2CC(n3ncc4c3C[C@H](C)NC4)C2)O1` [Example 18, 5-[(2R,6S)-2-methyl-6-[[3-[(6S)-6-methyl-4,5,6,7-tetrahydropyrazolo[4,3-c]pyridin-1-yl]azetidin-1-yl]methyl]morpholin-4-yl]quinoline-8-carbonitrile] was tested. Which IC50 did it give?
Answer: The IC50 was 147 nM.

Question: Which IC50 does the source give for `C[C@@H]1CN(c2ccc(C#N)c3ncccc23)C[C@H](CN2CC(n3ncc4c3CCN[C@@H]4C)C2)O1` [Example 20, 5-[(2R,6S)-2-methyl-6-[[3-[(4R)-4-methyl-4,5,6,7-tetrahydropyrazolo[4,3-c]pyridin-1-yl]azetidin-1-yl]methyl]morpholin-4-yl]quinoline-8-carbonitrile] here?
Answer: Its IC50 is 76 nM.

Question: Which IC50 does the source give for `C[C@@H]1CN(c2ccc(C#N)c3ncccc23)C[C@H](CN2CC(n3cc4c(n3)CCNC4)C2)O1` [Example 2, 5-[(2R,6S)-2-methyl-6-[[3-(4,5,6,7-tetrahydropyrazolo[4,3-c]pyridin-2-yl)azetidin-1-yl]methyl]morpholin-4-yl]quinoline-8-carbonitrile] here?
Answer: The IC50 was 66 nM.
